Data published in patent US5164189A, “Single layer transdermal drug administration system” (priority 1991, dated 1992).

How the values were obtained:
[1] = Intravenous albuterol pharmacokinetics in Rhesus monkeys; settings: 0.05 mg/kg
Experimental: (§1) This solution was injected into the saphenous vein of each monkey at a dose of 1 mL/Kg of bodyweight.
(§2) The serum from each blood sample was separated from other blood components via centrifugation, and then stored at -20° C. until the analysis described in Example 1(f)(1) was performed.
(§3) In separate clean test tubes, 1.5 mL of serum standard (Example 1(d)), serum sample (Examples 1(d) and (e)) and blank (Example 1(d)) was separately buffered with 150 microliters of a 0.42 M phosphate buffer, pH 7.2.
(§4) Each serum sample was then extracted with 4.5 mL of chloroform containing 0.1 M Di (2-ethylhexyl) phosphate (DEHP). The chloroform layer was separated into clean screw cap test tubes and mixed with 375 microliters of a 0.5 M HCl solution.
(§5) The aqueous extracts were then separated by centrifugation and analyzed by the HPLC-Fluorescence procedure described directly below.
(§6) The HPLC system consisted of a Waters Model 590 (Millipore Corporation, Bedford, Mass.) solvent delivery system equipped with a Waters Model 710 B Wisp auto injector, a Zorbax CN column (Dupont, 6 micron particles, 25 cm×4.6 mm internal diameter), Kratos (Kratos Analytical Instruments)Model 970 fluorescence detector (excitation 225 nm and emission 280 nm), and the Ingrad Data Analysis system (G. D. Searle & Co.). […] The mobile phase was pumped at a flow rate of 1.0 mL/minute. The injection volume was 100 microliters. The sensitivity of the method was 2.0 ng/mL.
(§7) The coefficient of variation associated with low (10 ng/mL) and high (80 ng/mL) quality control standard solutions were 4.5 and 3.4 percent, respectively.

[2] = cited from earlier work
in vivo = settings: rhesus monkey, iv, 0.05 mg/kg
Experimental: as §1, §2, §3, §4, §5, §6, §7

- Apparent volume of distribution ([1]; 50 mcg/Kg IV, Rhesus monkeys, n=4, mean): 1.9359 L/kg
- Vd ([1]; rhesus monkey, serum, iv): 1.94 ± 0.0372 L/kg
- AUC (in vivo): 84.2 ng·h/mL
Compound: CC(C)(C)NCC(O)c1ccc(O)c(CO)c1 (centres unmarked) [albuterol]
- Apparent volume of distribution in humans ([2]; human): 2.2 L/kg
- Oral bioavailability ([2]; oral, extensive first pass metabolism, 'as low as'): ≥ 10%
